# Test results published in patent US20230072683A1, “PYRIDO-PYRIMIDIN DERIVATIVES AND PHARMACEUTICAL COMPOSITION, FOR USE IN PREVENTING OR TREATING PI3 KINASE RELATED DISEASES, COMPRISING SAME AS ACTIVE INGREDIENT” (BORYUNG PHARMACEUTICAL CO., LTD, priority 2019, published 2023).
# How the values were obtained:
# DNA-PK(h) = DNA-PK(h) (Homo sapiens, UniProt P78527); test: Evaluation of inhibitory activity against DNA-PK (HTRF kinase assay, GST-cMyc-p53 substrate); assay type: biochemical; conditions: for inhibition at 0.01 µM: compound concentration 0.01 μM, read-out: EXP_VALUE(% Inhibition) DNA-PK(h) 0.01 μM; for inhibition at 0.1 µM: compound concentration 0.1 μM, read-out: EXP_VALUE(% Inhibition) DNA-PK(h) 0.1 μM
# Outline: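 p53 Ser15 phosphorylation by human DNA-PK was measured by time-resolved FRET ratio (665/620 nm ×10000) using Eu-labelled anti-phospho-Ser15 and d2 anti-GST antibodies. Substrate GST-cMyc-p53 at 50 μM; Mg/ATP-initiated, 30 min at room temperature, EDTA stop.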
# [1] = target: PI3K-δ (PI3K(p1108/p857) (h)) (Homo sapiens, UniProt O00329); test: Evaluation of inhibitory activity against PI3K-δ (HTRF kinase assay); assay type: biochemical; conditions: for inhibition at 0.01 µM: compound concentration 0.01 μM, read-out: EXP_VALUE(% Inhibition) PI3K-δ 0.01 μM; for inhibition at 0.1 µM: compound concentration 0.1 μM, read-out: EXP_VALUE(% Inhibition) PI3K-δ 0.1 μM
# PI3K-δ (PI3K(p1108/p857) (h)), sequence (O00329 whole entry, the tested form may be a part): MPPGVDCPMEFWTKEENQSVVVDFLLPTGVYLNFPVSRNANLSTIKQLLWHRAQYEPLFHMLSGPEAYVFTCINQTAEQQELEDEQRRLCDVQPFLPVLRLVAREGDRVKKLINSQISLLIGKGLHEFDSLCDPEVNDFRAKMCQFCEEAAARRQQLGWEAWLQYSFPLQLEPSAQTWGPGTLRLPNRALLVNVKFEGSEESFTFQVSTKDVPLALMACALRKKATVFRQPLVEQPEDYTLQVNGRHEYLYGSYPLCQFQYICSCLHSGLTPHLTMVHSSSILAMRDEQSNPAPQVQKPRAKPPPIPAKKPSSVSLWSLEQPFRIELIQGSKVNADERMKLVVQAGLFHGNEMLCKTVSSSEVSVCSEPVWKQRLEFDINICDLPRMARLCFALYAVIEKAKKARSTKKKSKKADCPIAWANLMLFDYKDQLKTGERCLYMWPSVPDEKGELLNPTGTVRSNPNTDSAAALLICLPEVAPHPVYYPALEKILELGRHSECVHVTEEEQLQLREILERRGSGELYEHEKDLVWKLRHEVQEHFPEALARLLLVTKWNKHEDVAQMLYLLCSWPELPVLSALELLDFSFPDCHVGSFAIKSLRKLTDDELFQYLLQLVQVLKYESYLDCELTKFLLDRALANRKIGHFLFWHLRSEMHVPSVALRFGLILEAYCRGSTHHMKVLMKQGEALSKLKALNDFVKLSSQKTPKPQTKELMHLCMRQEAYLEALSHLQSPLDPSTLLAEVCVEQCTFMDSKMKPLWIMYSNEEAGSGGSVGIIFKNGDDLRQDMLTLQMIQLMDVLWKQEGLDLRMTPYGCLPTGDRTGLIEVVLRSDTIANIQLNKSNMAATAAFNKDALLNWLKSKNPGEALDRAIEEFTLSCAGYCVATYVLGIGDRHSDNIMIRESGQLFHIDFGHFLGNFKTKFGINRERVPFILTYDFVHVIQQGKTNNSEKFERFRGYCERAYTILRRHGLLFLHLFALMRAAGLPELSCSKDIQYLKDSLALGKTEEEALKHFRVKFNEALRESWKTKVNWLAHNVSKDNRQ
# PI3K-δ (PI3K(p1108/p857) (h)), sequence (P27986 whole entry partner, the tested form may be a part): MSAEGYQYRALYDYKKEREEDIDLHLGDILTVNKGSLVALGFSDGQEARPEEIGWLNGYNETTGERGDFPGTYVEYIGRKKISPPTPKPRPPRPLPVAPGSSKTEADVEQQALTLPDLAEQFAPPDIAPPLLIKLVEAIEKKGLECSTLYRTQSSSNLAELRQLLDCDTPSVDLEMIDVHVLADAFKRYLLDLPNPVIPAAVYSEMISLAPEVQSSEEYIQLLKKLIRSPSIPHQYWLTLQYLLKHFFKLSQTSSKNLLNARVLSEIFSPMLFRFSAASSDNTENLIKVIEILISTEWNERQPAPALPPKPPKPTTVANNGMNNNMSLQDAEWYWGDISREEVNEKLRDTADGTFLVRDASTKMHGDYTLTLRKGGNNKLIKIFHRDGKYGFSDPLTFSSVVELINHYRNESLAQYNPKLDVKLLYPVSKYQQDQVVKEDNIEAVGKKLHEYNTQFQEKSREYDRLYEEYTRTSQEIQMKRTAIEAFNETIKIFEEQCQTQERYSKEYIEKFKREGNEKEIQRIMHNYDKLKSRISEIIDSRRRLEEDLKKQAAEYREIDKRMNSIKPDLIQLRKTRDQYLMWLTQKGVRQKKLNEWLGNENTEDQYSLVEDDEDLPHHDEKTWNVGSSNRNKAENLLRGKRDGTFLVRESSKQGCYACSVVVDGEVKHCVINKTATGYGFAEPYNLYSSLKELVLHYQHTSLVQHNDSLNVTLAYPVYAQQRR
# Outline: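 HTRF read-out (665/620 nm ratio ×10000) used Eu-labelled anti-GST, GST-tagged GRP1 PH domain and streptavidin-allophycocyanin after EDTA/PIP3 stop.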
SMILES,inhibition at 0.01 µM (DNA-PK(h)) [%],inhibition at 0.01 µM [1] [%],inhibition at 0.1 µM (DNA-PK(h)) [%],inhibition at 0.1 µM [1] [%]
"C[C@H](Nc1ncnc2[nH]ccc(=O)c12)c1c(Cl)c2cccc(C(=O)NCc3cccs3)c2c(=O)n1-c1ccccc1 [Example 278, (S)-4-chloro-1-oxo-3-(1-((5-oxo-5,8-dihydropyrido[2,3-d]pyrimidin-4-yl)amino)ethyl)-2-phenyl-N-(thiophen-2-ylmethyl)-1,2-dihydroisoquinoline-8-carboxamide]",6,104,,
"C[C@H](Nc1ncnc2[nH]ccc(=O)c12)c1c(Cl)c2cccc(C(=O)NC3COC3)c2c(=O)n1-c1ccccc1 [Example 276, (S)-4-chloro-N-(oxetan-3-yl)-1-oxo-3-(1-((5-oxo-5,8-dihydropyrido[2,3-d]pyrimidin-4-yl)amino)ethyl)-2-phenyl-1,2-dihydroisoquinoline-8-carboxamide]",29,96,,
"C[C@H](Nc1ncnc2[nH]ccc(=O)c12)c1c(Cl)c2cccc(N(C)C3CCCCC3)c2c(=O)n1-c1ccccc1 [Example 322, (S)-4-((1-(4-chloro-8-(cyclohexyl(methyl)amino)-1-oxo-2-phenyl-1,2-dihydroisoquinolin-3-yl)ethyl)amino)pyrido[2,3-d]pyrimidin-5(8H)-one]",-11,11,21,30
"C[C@H](Nc1ncnc2[nH]ccc(=O)c12)c1c(Cl)c2cccc(Nc3ccccc3)c2c(=O)n1-c1ccccc1 [Example 343, (S)-4-((1-(4-chloro-1-oxo-2-phenyl-8-(phenylamino)-1,2-dihydroisoquinolin-3-yl)ethyl)amino)pyrido[2,3-d]pyrimidin-5(8H)-one]",-1,8,,

# The next lines start with the values.
inhibition at 0.01 µM (DNA-PK(h)) [%],inhibition at 0.01 µM [1] [%],inhibition at 0.1 µM (DNA-PK(h)) [%],inhibition at 0.1 µM [1] [%],SMILES
,,36,48,"C[C@H](Nc1ncnc2[nH]ccc(=O)c12)c1c(Cl)c2cccc(-c3ccc4c(c3)NC(=O)C(C)(C)O4)c2c(=O)n1-c1ccccc1 [Example 373, (S)-6-(4-chloro-1-oxo-3-(1-((5-oxo-5,8-dihydropyrido[2,3-d]pyrimidin-4-yl)amino)ethyl)-2-phenyl-1,2-dihydroisoquinolin-8-yl)-2,2-dimethyl-2H-benzo[b] [1,4]oxazin-3 (4H)-one]"
15,109,55,117,"C[C@H](Nc1ncnc2[nH]ccc(=O)c12)c1c(Cl)c2cccc(/C(N)=N/O)c2c(=O)n1-c1ccccc1 [Example 350, (S,Z)-4-chloro-N′-hydroxy-1-oxo-3-(1-((5-oxo-5,8-dihydropyrido[2,3-d]pyrimidin-4-yl)amino)ethyl)-2-phenyl-1,2-dihydroisoquinoline-8-carboximidamide]"
85,78,100,97,"Cc1nc2cc(-c3cccc4c(Cl)c([C@H](C)Nc5ncnc6[nH]ccc(=O)c56)n(-c5ccccc5)c(=O)c34)ccc2[nH]1 [Example 135, (S)-4-((1-(4-chloro-8-(2-methyl-1H-benzo[d]imidazol-5-yl)-1-oxo-2-phenyl-1,2-dihydroisoquinolin-3-yl)ethyl)amino)pyrido[2,3-d]pyrimidin-5(8H)-one]"
89,91,102,94,"C[C@H](Nc1ncnc2[nH]ccc(=O)c12)c1c(Cl)c2cccc(-c3cnc4c(c3)OCCO4)c2c(=O)n1-c1ccccc1 [Example 132, (S)-4-((1-(4-chloro-8-(2,3-dihydro-[1,4]dioxino[2,3-b]pyridin-7-yl)-1-oxo-2-phenyl-1,2-dihydroisoquinolin-3-yl)ethyl)amino)pyrido[2,3-d]pyrimidin-5(8H)-one]"
89,92,,,"C[C@H](Nc1ncnc2[nH]ccc(=O)c12)c1c(Cl)c2cccc(-c3ccc(N4CCNCC4)cc3)c2c(=O)n1-c1ccccc1 [Example 148, (S)-4-((1-(4-chloro-1-oxo-2-phenyl-8-(4-(piperazin-1-yl)phenyl)-1,2-dihydroisoquinolin-3-yl)ethyl)amino)pyrido[2,3-d]pyrimidin-5(8H)-one]"
